System: glycogen synthase
Assay: Glycogen Synthase (GS) Assay
Format: biochemical
Details: for EC50: compound concentration needed to give 50% maximum activation; for GS SC200: compound concentration needed to stimulate 200% of the enzyme activity
Experimental: Twelve μL per well of substrate solution containing glycogen (4.32 mg/ml), 2.67 mM UDP-glucose, 21.6 mM phospho(enol)pyruvate and 2.7 mM NADH in 30 mM glycylglycine, pH 7.3 buffer was added into a polystyrene 384-well assay plate (BD Biosciences).
Compound solutions (8 μL/well) at various concentrations (0-300 μM) were added to the assay plate (columns 5-24). Compound solution contains 30 mM glycylglycine, pH 7.3, 40 mM KCl, 20 mM MgCl2, 9.2% DMSO, with (columns 15-24) or without (columns 5-14) 20 mM glucose 6-phosphate.
Enzyme solution (12 μL/well) containing glycogen synthase (16.88 μg/ml), pyruvate kinase (0.27 mg/ml), lactate dehydrogenase (0.27 mg/ml) in 50 mM Tris-HCl, pH 8.0, 27 mM DTT and bovine serum albumin (BSA, 0.2 mg/ml) was added to the assay plate (columns 3-24). As a blank control, enzyme solution without glycogen synthase was added into the top half wells of columns 1-2. To the bottom half wells of columns 1-2 were added a known activator, glucose 6-phosphate (at final concentration 5 mM) in addition to the enzyme solution. The reaction mixture was incubated at room temperature. The assay plate was then read for absorbance at 340 nm on an Envision reader every 3 minutes up to a total of 15 minutes.
The enzyme activity (with or without compound) was calculated by the reaction rate and represented by the optical density change (δOD) per minute. Percent stimulation of glycogen synthase activity by a compound at various concentrations was calculated by the following formula: % stimulation=100*Rs/Rt,
Where Rs is the reaction rate of the enzyme in the presence of compound and Rt is the reaction rate of the enzyme in the absence of compound.
SC200 is defined as the compound concentration that is needed to stimulate 200% of the enzyme activity. EC50 is defined as the compound concentration that is needed to give 50% maximum activation.

Row | SMILES | EC50 [nM] | GS SC200 [µM]
1 | O=C(O)[C@@H]1CCCN1C(=O)c1cccc(COc2ccc(-c3ccc(F)cc3F)cc2)c1 [Example 1, (S)-1-[3-(2′,4′-Difluoro-biphenyl-4-yloxymethyl)-benzoyl]-pyrrolidine-2-carboxylic acid] | 120 | 0.02
2 | Cc1cc(F)c(F)cc1-c1ccc(OCc2cccc(C(=O)N(C)CC(=O)O)c2)cc1 [Example 4, {[3-(4′,5′-Difluoro-2′-methyl-biphenyl-4-yloxymethyl)-benzoyl]-methyl-amino}-acetic acid] | 80 | 0.01
3 | CN(CC(=O)NS(C)(=O)=O)C(=O)c1cccc(COc2ccc(-c3cc(F)c(F)cc3F)cc2)c1 [Example 5, N-(2-Methanesulfonylamino-2-oxo-ethyl)-N-methyl-3-(2′,4′,5′-trifluoro-biphenyl-4-yloxymethyl)-benzamide] | 200 | 0.07
4 | O=C(c1cccc(COc2ccc(-c3cc(F)c(F)cc3F)cc2)c1)N1CCC[C@H]1c1nnn[nH]1 [Example 6, [(S)-2-(1H-Tetrazol-5-yl)-pyrrolidin-1-yl]-[3-(2′,4′,5′-trifluoro-biphenyl-4-yloxymethyl)-phenyl]-methanone] | 2100 | 0.59
5 | COc1cc(F)c(F)cc1-c1ccc(OCc2cccc(C(=O)N(C)CC(=O)O)c2)cc1 [Example 7, {[3-(4′,5′-Difluoro-2′-methoxy-biphenyl-4-yloxymethyl)-benzoyl]-methyl-amino}-acetic acid] | 100 | 0.02
6 | COc1cc(F)c(F)cc1-c1ccc(OCc2nc(C(=O)N(CC(=O)O)C(C)(C)C)cs2)cc1 [Example 9, {tert-Butyl-[2-(4′,5′-difluoro-2′-methoxy-biphenyl-4-yloxymethyl)-thiazole-4-carbonyl]-amino}-acetic acid] | 110 | 0.01
7 | CN(CC(=O)O)C(=O)c1cccc(COc2ccc(-c3cc(F)c(F)cc3F)cc2)c1 [Example 10, {Methyl-[3-(2′,4′,5′-trifluoro-biphenyl-4-yloxymethyl)-benzoyl]-amino}-acetic acid] | 100 | 0.04
8 | O=C(NS(=O)(=O)C1CC1)c1cccc(COc2ccc(-c3cc(F)c(F)cc3F)cc2)c1 [Example 12, Cyclopropanesulfonic acid 3-(2′,4′,5′-trifluoro-biphenyl-4-yloxymethyl)-benzoylamide] | 690 | 0.14
9 | COc1cc(F)c(F)cc1-c1ccc(OCc2cc(C(=O)N(C)CC(=O)O)ccc2F)cc1 [Example 13, {[3-(4′,5′-Difluoro-2′-methoxy-biphenyl-4-yloxymethyl)-4-fluoro-benzoyl]-methyl-amino}-acetic acid] | 80 | 0.004
10 | CN(CC(=O)O)C(=O)c1cccc(COc2ccc(-c3cc(F)c(F)cc3F)cc2F)c1 [Example 14] | 100 | 0.01

Continued, in another order:

Row | EC50 [nM] | SMILES | GS SC200 [µM]
11 | 140 | COc1cc(F)c(F)cc1-c1ccc(OCc2cccc(C(=O)N3CCC[C@H]3C(=O)O)c2)cc1 [Example 2, (S)-1-[3-(4′,5′-Difluoro-2′-methoxy-biphenyl-4-yloxymethyl)-benzoyl]-pyrrolidine-2-carboxylic acid] | 0.02
12 | 40 | Cc1cc(F)c(F)cc1-c1ccc(OCc2cccc(C(=O)N3CCC[C@H]3C(=O)O)c2)cc1 [Example 3, (S)-1-[3-(4′,5′-Difluoro-2′-methyl-biphenyl-4-yloxymethyl)-benzoyl]-pyrrolidine-2-carboxylic acid] | 0.001
13 | 200 | COc1cc(F)c(F)cc1-c1ccc(OCc2cccc(C(=O)N(CC(=O)O)C(C)(C)C)c2)cc1 [Example 8, {tert-Butyl-[3-(4′,5′-difluoro-2′-methoxy-biphenyl-4-yloxymethyl)-benzoyl]-amino}-acetic acid] | 0.01
14 | 160 | COc1cc(F)c(F)cc1-c1ccc(OCc2cccc(C(=O)N(C)CC(=O)O)c2)cc1F [Example 11, {Methyl-[3-(2,4′,5′-trifluoro-2′-methoxy-biphenyl-4-yloxymethyl)-benzoyl]-amino}-acetic acid] | 0.01
15 | 220 | COc1cc(F)c(F)cc1-c1ccc(OCc2cccc(C(=O)N3CCC[C@@H]3C(=O)O)c2)cc1 [Example 15, (R)-1-[3-(4′,5′-Difluoro-2′-methoxy-biphenyl-4-yloxymethyl)-benzoyl]-pyrrolidine-2-carboxylic acid] | 0.05
